Test results from ChEMBL document CHEMBL3352797, “Design of granulatimide and isogranulatimide analogues as potential Chk1 inhibitors: Study of amino-platforms for their synthesis” (Bioorg Med Chem, 2014).
pIC50: −log10 of the molar value.

Target: T1, Serine/threonine-protein kinase Chk1 (Homo sapiens, UniProt O14757)
T1 sequence (O14757 whole entry): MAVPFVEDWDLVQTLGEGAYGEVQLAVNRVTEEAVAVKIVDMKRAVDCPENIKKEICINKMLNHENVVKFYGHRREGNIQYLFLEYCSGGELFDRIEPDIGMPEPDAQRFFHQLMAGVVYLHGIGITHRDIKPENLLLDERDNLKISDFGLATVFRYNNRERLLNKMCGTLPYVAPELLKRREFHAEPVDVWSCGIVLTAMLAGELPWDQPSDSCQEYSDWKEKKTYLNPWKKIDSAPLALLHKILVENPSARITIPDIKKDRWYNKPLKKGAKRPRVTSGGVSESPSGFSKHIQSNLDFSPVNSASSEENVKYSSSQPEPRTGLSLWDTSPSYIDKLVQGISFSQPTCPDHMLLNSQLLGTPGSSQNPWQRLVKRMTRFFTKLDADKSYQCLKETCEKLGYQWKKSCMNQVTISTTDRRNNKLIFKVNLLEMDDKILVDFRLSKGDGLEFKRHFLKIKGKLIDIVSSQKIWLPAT
Assay: Inhibition of Chk1 (unknown origin)

- pIC50: 6.60
SMILES: O=C1NC(=O)c2c1c1[nH]cnc1c1[nH]c3ccccc3c21 [GRANULATIMIDE]
